From US8192962B2, “Processes for detecting toxic substances” (Daikin Industries, Ltd., priority 2001, dated 2012)

Tested on: DNA repair protein genes
Test: DNA chip mRNA expression in yeast, DNA repair protein genes (Table 3)
Type: cell-based, Saccharomyces cerevisiae S288C
Conditions: incubated two hours, concentrations as in the 1st table
Description: Yeast (Saccharomyces cerevisiae S288C (α SUC2mal mel gap2 CUP1)) were incubated at 25° C. on YPD medium (yeast extract 1%, polypepton 2%, glucose 2%). One of toxic chemical substances was added to the cells at logarithmic growth phase, and the cells were further incubated for two hours. Cells were cultured without any chemical substance in the same condition, and were used as control. Concentrations of the chemical substances were defined to inhibit the growth of the yeast but not lead to death.
After completion of the incubation, the culture was centrifuged to collect the cells. To the cells, sodium acetate buffer (50 mM sodium acetate, 10 mM EDTA, 1% SDS) was added, and the mixture was shaken at 65° C. for five minutes, followed by returning to room temperature, and obtaining the supernatant, of which the procedures were repeated two times. To the supernatant, ½ amount of a solution of phenol/chloroform was added, and the mixture was centrifuged to give a supernatant, which was added with an equal amount of chloroform, and the mixture was centrifuged to give a supernatant. To the supernatant, an equal amount of isopropanol containing 0.3 M sodium acetate was added, and the mixture was allowed to stand at room temperature for 30 minutes, after which the mixture was centrifuged to give a sediment of the whole RNAs. Seventy % ethanol was added to the sediment, and the mixture was again centrifuged to give a sediment, which was then dried and dissolved in water. mRNA was isolated from the whole RNAs as followings. In view of the fact that a poly A chain is attached to the 3′ terminus of mRNA, a polynucleotide having a poly T structure which was immobilized on the surface of latex beads was used to trap the mRNA, and then the mRNA was washed and eluted with spine column (Oligotex-dT30<Super>mRNA Purification Kit, Takara). Reverse transcription of the mRNA was conducted with a reverse transcriptase (Super Script II Reverse Transcriptase; catalogue No. 18064-014, GibcoBRL) using fluorescence-labeled nucleotides to give cDNAs that were introduced with Cy3-dUTP or Cy5-dUTP during the reverse transcription.
The labeled cDNAs were dissolved in TE buffer (10mM Tris-HCl/1 mM EDTA, pH8.0), and the solution was dropped on the DNA chip containing the whole genes of yeast (DNA Chip Research Inc. Japan) so that the cDNAs were hybridized on the DNA chip at 65° C. for over 12 hours. The fluoresces intensity of the DNA chip was read with a scanner, and the ratio relative to the fluorescence intensity resulting from the absence of chemical substance was estimated as the following, which is shown in Tables 1 to 9: […]

For `N#Cc1c(Cl)c(Cl)c(Cl)c(C#N)c1Cl` [(9), 2,4,5,6-tetrachloro-1,3-benzenedicarbonitrile], the “The level of expressed mRNA in the presence of chemical substance/The level of expressed mRNA in the absence of chemical substance” value (yeast gene YAL015C) was 4.0, the “The level of expressed mRNA in the presence of chemical substance/The level of expressed mRNA in the absence of chemical substance” value (yeast gene YAR007C) was 4.1 and the “The level of expressed mRNA in the presence of chemical substance/The level of expressed mRNA in the absence of chemical substance” value (yeast gene YBL019W) was 2.6. The “The level of expressed mRNA in the presence of chemical substance/The level of expressed mRNA in the absence of chemical substance” value (yeast gene YBR073W) was 2.5, the “The level of expressed mRNA in the presence of chemical substance/The level of expressed mRNA in the absence of chemical substance” value (yeast gene YBR272C) was 1.7 and the “The level of expressed mRNA in the presence of chemical substance/The level of expressed mRNA in the absence of chemical substance” value (yeast gene YCR014C) was 2.4. For the same molecule, the “The level of expressed mRNA in the presence of chemical substance/The level of expressed mRNA in the absence of chemical substance” value (yeast gene YDL017W) was 0.8, the “The level of expressed mRNA in the presence of chemical substance/The level of expressed mRNA in the absence of chemical substance” value (yeast gene YDL059C) was 10.5 and the “The level of expressed mRNA in the presence of chemical substance/The level of expressed mRNA in the absence of chemical substance” value (yeast gene YDL200C) was 2.4. For the same molecule, the “The level of expressed mRNA in the presence of chemical substance/The level of expressed mRNA in the absence of chemical substance” value (yeast gene YDR054C) was 2.9, the “The level of expressed mRNA in the presence of chemical substance/The level of expressed mRNA in the absence of chemical substance” value (yeast gene YDR369C) was 2.4 and the “The level of expressed mRNA in the presence of chemical substance/The level of expressed mRNA in the absence of chemical substance” value (yeast gene YEL019C) was 0.7. For the same molecule, the “The level of expressed mRNA in the presence of chemical substance/The level of expressed mRNA in the absence of chemical substance” value (yeast gene YEL037C) was 2.6, the “The level of expressed mRNA in the presence of chemical substance/The level of expressed mRNA in the absence of chemical substance” value (yeast gene YER162C) was 2.8 and the “The level of expressed mRNA in the presence of chemical substance/The level of expressed mRNA in the absence of chemical substance” value (yeast gene YFL014W) was 13.1. For the same molecule, the “The level of expressed mRNA in the presence of chemical substance/The level of expressed mRNA in the absence of chemical substance” value (yeast gene YGL058W) was 3.7, the “The level of expressed mRNA in the presence of chemical substance/The level of expressed mRNA in the absence of chemical substance” value (yeast gene YGL091C) was 10.8 and the “The level of expressed mRNA in the presence of chemical substance/The level of expressed mRNA in the absence of chemical substance” value (yeast gene YGL127C) was 1.2. The “The level of expressed mRNA in the presence of chemical substance/The level of expressed mRNA in the absence of chemical substance” value (yeast gene YGL163C) was 5.8, the “The level of expressed mRNA in the presence of chemical substance/The level of expressed mRNA in the absence of chemical substance” value (yeast gene YGL249W) was 0.3 and the “The level of expressed mRNA in the presence of chemical substance/The level of expressed mRNA in the absence of chemical substance” value (yeast gene YGR180C) was 1.4. For the same molecule, the “The level of expressed mRNA in the presence of chemical substance/The level of expressed mRNA in the absence of chemical substance” value (yeast gene YGR231C) was 3.2, the “The level of expressed mRNA in the presence of chemical substance/The level of expressed mRNA in the absence of chemical substance” value (yeast gene YGR258C) was 2.5 and the “The level of expressed mRNA in the presence of chemical substance/The level of expressed mRNA in the absence of chemical substance” value (yeast gene YHR164C) was 1.3. For the same molecule, the “The level of expressed mRNA in the presence of chemical substance/The level of expressed mRNA in the absence of chemical substance” value (yeast gene YIL036W) was 3.6, the “The level of expressed mRNA in the presence of chemical substance/The level of expressed mRNA in the absence of chemical substance” value (yeast gene YIL072W) was 2.9 and the “The level of expressed mRNA in the presence of chemical substance/The level of expressed mRNA in the absence of chemical substance” value (yeast gene YIL143C) was 7.1. The “The level of expressed mRNA in the presence of chemical substance/The level of expressed mRNA in the absence of chemical substance” value (yeast gene YIL153W) was 4.3, the “The level of expressed mRNA in the presence of chemical substance/The level of expressed mRNA in the absence of chemical substance” value (yeast gene YIR002C) was 1.7 and the “The level of expressed mRNA in the presence of chemical substance/The level of expressed mRNA in the absence of chemical substance” value (yeast gene YJL026W) was 1.0. The “The level of expressed mRNA in the presence of chemical substance/The level of expressed mRNA in the absence of chemical substance” value (yeast gene YJR046W) was 6.0, the “The level of expressed mRNA in the presence of chemical substance/The level of expressed mRNA in the absence of chemical substance” value (yeast gene YJR052W) was 4.5 and the “The level of expressed mRNA in the presence of chemical substance/The level of expressed mRNA in the absence of chemical substance” value (yeast gene YKL145W) was 3.5. For the same molecule, the “The level of expressed mRNA in the presence of chemical substance/The level of expressed mRNA in the absence of chemical substance” value (yeast gene YLR103C) was 0.8, the “The level of expressed mRNA in the presence of chemical substance/The level of expressed mRNA in the absence of chemical substance” value (yeast gene YLR233C) was 0.6 and the “The level of expressed mRNA in the presence of chemical substance/The level of expressed mRNA in the absence of chemical substance” value (yeast gene YLR288C) was 0.8. The “The level of expressed mRNA in the presence of chemical substance/The level of expressed mRNA in the absence of chemical substance” value (yeast gene YML032C) was 3.0, the “The level of expressed mRNA in the presence of chemical substance/The level of expressed mRNA in the absence of chemical substance” value (yeast gene YML058W) was 1.1 and the “The level of expressed mRNA in the presence of chemical substance/The level of expressed mRNA in the absence of chemical substance” value (yeast gene YMR035W) was 1.7. For the same molecule, the “The level of expressed mRNA in the presence of chemical substance/The level of expressed mRNA in the absence of chemical substance” value (yeast gene YMR072W) was 3.0, the “The level of expressed mRNA in the presence of chemical substance/The level of expressed mRNA in the absence of chemical substance” value (yeast gene YMR096W) was 3.3 and the “The level of expressed mRNA in the presence of chemical substance/The level of expressed mRNA in the absence of chemical substance” value (yeast gene YMR284W) was 1.6. The “The level of expressed mRNA in the presence of chemical substance/The level of expressed mRNA in the absence of chemical substance” value (yeast gene YNL213C) was 3.0, the “The level of expressed mRNA in the presence of chemical substance/The level of expressed mRNA in the absence of chemical substance” value (yeast gene YNL250W) was 4.2 and the “The level of expressed mRNA in the presence of chemical substance/The level of expressed mRNA in the absence of chemical substance” value (yeast gene YNL261W) was 2.3. For the same molecule, the “The level of expressed mRNA in the presence of chemical substance/The level of expressed mRNA in the absence of chemical substance” value (yeast gene YNL312W) was 3.7, the “The level of expressed mRNA in the presence of chemical substance/The level of expressed mRNA in the absence of chemical substance” value (yeast gene YOL043C) was 1.0 and the “The level of expressed mRNA in the presence of chemical substance/The level of expressed mRNA in the absence of chemical substance” value (yeast gene YOR005C) was 2.4. For the same molecule, the “The level of expressed mRNA in the presence of chemical substance/The level of expressed mRNA in the absence of chemical substance” value (yeast gene YOR386W) was 4.1, the “The level of expressed mRNA in the presence of chemical substance/The level of expressed mRNA in the absence of chemical substance” value (yeast gene YPL022W) was 2.1 and the “The level of expressed mRNA in the presence of chemical substance/The level of expressed mRNA in the absence of chemical substance” value (yeast gene YPL164C) was 2.1. The “The level of expressed mRNA in the presence of chemical substance/The level of expressed mRNA in the absence of chemical substance” value (yeast gene YPL194W) was 9.6 and the “The level of expressed mRNA in the presence of chemical substance/The level of expressed mRNA in the absence of chemical substance” value (yeast gene YPR025C) was 1.9.
